Laboratory results taken from patent publication US12016922B2, “Stabilized aqueous antibody compositions” (Arecor Limited, priority 2012, dated 2024).

How the values were obtained:
Type in all cases: physicochemical
rituximab [1] = experiment: Aggregation of rituximab formulations on storage, % HMWS by size exclusion chromatography
Experimental: (§1) Formulations of protein therapeutics, rituximab and certolizumab pegol, were prepared either in the absence or in the presence of various oligomers of ethyleneimine. The following products were used as the starting material: MabThera® (rituximab) and Cimzia® (certolizumab pegol). The compositions of the two products are as follows:
(§2) In order to prepare the formulations for testing, it was necessary to remove the original excipients and replace them with the selected excipients. The following procedure was used to prepare the formulations for testing: Original compositions were removed from the manufacturer's container and dialysed in 3.5 kDa cut-off dialysis cassettes (Thermo Pierce) at 2-8° C., using three changes for a minimum of 4 hours in each, including one overnight incubation.
(§3) The background solutions, containing the new excipients and adjusted to the required pH, were added to the dialysed proteins to achieve the required concentration of excipients and the protein in the final composition. The formulated samples were placed into storage at 40° C. or at 5° C., and stability was tested after a given period of time. The stability of the proteins was tested in compositions containing oligomers of ethyleneimine and compared to a ‘Control formulation’ with identical background in the absence of the oligomers.
(§4) The amount of high molecular weight species is measured using a 300×7.8 mm S3000 (or equivalent) size-exclusion column with a guard column. The mobile phase is potassium phosphate pH 6.5, with a flow rate of 0.4 ml/min, injection volume of 1 μl and detected at 210 and 280 nm. The results are expressed as % high molecular species (HMWS), i.e. sum of all peak areas corresponding to aggregated protein over the sum of all protein-related peaks on the chromatogram. […] However, within a given time-point the samples are tested using the column in the same condition, so the values generated within the time-point represent a very good indication of the relative stability of the protein in the compositions tested.
(§5) Rituximab was formulated at 100 mg/ml in the following background solution: EDTA (0.2 mM), methionine (1 mM), histidine (10 mM). The pH was adjusted to 6.5.
Rituximab was formulated at 100 mg/ml in the following background solution: EDTA (0.2 mM), methionine (1 mM), histidine (10 mM), in the presence of arginine (80 mM) as a tonicity modifier. The pH of all formulations was adjusted to 6.5. For comparison, the formulation of commercial liquid rituximab product (‘Original formulation’ also with rituximab at 100 mg/ml) was also included.
Rituximab was formulated at 100 mg/ml in the following background solution: EDTA (0.2 mM), methionine (1 mM) histidine (10 mM) and trehalose (200 mM). The pH was adjusted to 6.5.
Rituximab was formulated at 140 mg/ml in the following background solution: EDTA (0.2 mM), methionine (1 mM), histidine (10 mM) and trehalose (200 mM). The pH was adjusted to 6.5.

rituximab [2] = experiment: Visual assessment of rituximab formulations on storage; details: rituximab 100 mg/ml, trehalose 200 mM
Experimental: as §2, §3
Vials are placed in a suitable location with a suitably selected contrasting background, and under sufficient and appropriate illumination to highlight any potential or detected visual deviations. A control (or freshly prepared material) is placed alongside for direct comparison. Solutions are classed as clear if there are no visual imperfections; as cloudy if there is a significant change in the opacity of the material; and if there are insoluble fractions, or if particles are visible towards the bottom of the vial, a precipitate is deemed to have been formed.
as §5

Certolizumab pegol = experiment: Aggregation of certolizumab pegol formulations on storage, % HMWS by size exclusion chromatography; details: Certolizumab pegol 100 mg/ml, 40° C.
Experimental: as §1, §2, §3, §4
Certolizumab pegol was formulated at 100 mg/ml in histidine buffer (10 mM, pH 6.0) in the presence of either NaCl (150 mM) or 1,2-propandiol (200 mM) as tonicity modifiers.

[3] = Example 4: rituximab 100 mg/ml, trehalose 200 mM, pH 6.5, 40° C., compared with background formulation without oligomer
[4] = rituximab 100 mg/ml, trehalose 200 mM, pH 6.5, 40° C., additive 0.2 mg/ml
[5] = rituximab 100 mg/ml, trehalose 200 mM, pH 6.5, 40° C., additive 1 mg/ml
[6] = rituximab 100 mg/ml, trehalose 200 mM, pH 6.5, 40° C., additive 5 mg/ml
[7] = rituximab 100 mg/ml, arginine 80 mM, pH 6.5, 40° C., additive 0.1 mg/ml
[8] = rituximab 100 mg/ml, arginine 80 mM, pH 6.5, 40° C., additive 0.5 mg/ml
[9] = rituximab 100 mg/ml, arginine 80 mM, pH 6.5, 40° C., additive 2.5 mg/ml
[10] = rituximab 100 mg/ml, trehalose 200 mM, pH 6.5, 5° C., additive 0.1 mg/ml
[11] = rituximab 100 mg/ml, trehalose 200 mM, pH 6.5, 5° C., additive 0.5 mg/ml
[12] = rituximab 100 mg/ml, trehalose 200 mM, pH 6.5, 5° C., additive 2.5 mg/ml
[13] = rituximab 100 mg/ml, trehalose 200 mM, pH 6.5, 40° C., additive 0.1 mg/ml
[14] = rituximab 100 mg/ml, trehalose 200 mM, pH 6.5, 40° C., additive 0.5 mg/ml
[15] = rituximab 100 mg/ml, trehalose 200 mM, pH 6.5, 40° C., additive 2.5 mg/ml
[16] = rituximab 140 mg/ml, trehalose 200 mM, pH 6.5, 40° C., additive 0.03 mg/ml
[17] = rituximab 140 mg/ml, trehalose 200 mM, pH 6.5, 40° C., additive 1 mg/ml
[18] = rituximab 140 mg/ml, trehalose 200 mM, pH 6.5, 40° C., additive 5 mg/ml
[19] = rituximab 140 mg/ml, trehalose 200 mM, pH 6.5, 40° C., additive […]
[20] = histidine 10 mM pH 6.0, 1,2-propanediol 200 mM, additive 3 mg/ml

NCCN [Ethylenediamine, reference compound]
effect on the rate of formation of HMWS (rituximab [1]; [3]): less effective in reducing the formation of HMWS
% HMWS 16 weeks (rituximab [1]; [4]): 2.44%
% HWMS 0 weeks (rituximab [1]; [4]): 0.49%
% HMWS 16 weeks (rituximab [1]; [5]): 2.27%
% HWMS 0 weeks (rituximab [1]; [5]): 0.72%
% HMWS 16 weeks (rituximab [1]; [6]): 2.08%
% HWMS 0 weeks (rituximab [1]; [6]): 0.78%

Cl.Cl.Cl.Cl.Cl.NCCNCCNCCNCCN [Tetraethylenepentamine, tetraethylenepentamine pentahydrochloride]
effect on the rate of formation of HMWS (rituximab [1]; Example 1: rituximab 100 mg/ml, trehalose, pH 6.5, 40° C. and 5° C.): reduce considerably the rate of formation of HMWS
effect on the rate of formation of HMWS (rituximab [1]; Example 3: rituximab 100 mg/ml, arginine 80 mM, pH 6.5, 40° C., compared with background solutions without oligomer): reduce considerably the rate of formation of HMWS
% HMWS 0 weeks (rituximab [1]; [7]): 1.58%
% HMWS 12 weeks (rituximab [1]; [7]): 2.08%
% HMWS 0 weeks (rituximab [1]; [8]): 1.53%
% HMWS 12 weeks (rituximab [1]; [8]): 1.89%
% HMWS 0 weeks (rituximab [1]; [9]): 1.47%
% HMWS 12 weeks (rituximab [1]; [9]): 0.85%
% HMWS 8 weeks (rituximab [1]; [10]): 1.23%
% HMWS T0 (rituximab [1]; [10]): 1.40%
% HMWS 8 weeks (rituximab [1]; [11]): 1.22%
% HMWS T0 (rituximab [1]; [11]): 1.44%
% HMWS 8 weeks (rituximab [1]; [12]): 1.21%
% HMWS T0 (rituximab [1]; [12]): 1.40%
% HMWS 8 weeks (rituximab [1]; [13]): 1.79%
% HMWS T0 (rituximab [1]; [13]): 1.40%
% HMWS 8 weeks (rituximab [1]; [14]): 1.85%
% HMWS T0 (rituximab [1]; [14]): 1.44%
% HMWS 8 weeks (rituximab [1]; [15]): 1.45%
% HMWS T0 (rituximab [1]; [15]): 1.40%
Visual (8 weeks) (rituximab [2]; pH 6.5, 5° C., additive 0.1 mg/ml): Clear
Visual (8 weeks) (rituximab [2]; pH 6.5, 5° C., additive 0.5 mg/ml): Clear
Visual (8 weeks) (rituximab [2]; pH 6.5, 5° C., additive 2.5 mg/ml): Clear
Visual (8 weeks) (rituximab [2]; pH 6.5, 40° C., additive 0.1 mg/ml): Clear
Visual (8 weeks) (rituximab [2]; pH 6.5, 40° C., additive 0.5 mg/ml): Clear
Visual (8 weeks) (rituximab [2]; pH 6.5, 40° C., additive 2.5 mg/ml): Clear

NCCNCCNCCN [Triethylenetetramine]
rate of aggregation compared with Original formulation (rituximab [1]; Example 4: rituximab 100 mg/ml, trehalose 200 mM, pH 6.5, 40° C.): lower
effect on the rate of formation of HMWS (rituximab [1]; [3]): considerably reduce the rate of formation of HMWS in a dose dependent manner
effect on the rate of aggregation (rituximab [1]; Example 5: rituximab 140 mg/ml, trehalose 200 mM, pH 6.5, 40° C.): considerable, dose-dependent reduction in the aggregation rate
% HMWS 16 weeks (rituximab [1]; [4]): 0.81%
% HWMS 0 weeks (rituximab [1]; [4]): 0.74%
% HMWS 16 weeks (rituximab [1]; [5]): 0.56%
% HWMS 0 weeks (rituximab [1]; [5]): 0.84%
% HMWS 16 weeks (rituximab [1]; [6]): 0.51%
% HWMS 0 weeks (rituximab [1]; [6]): 0.74%
% HMWS 0 weeks (rituximab [1]; [16]): 0.36%
% HMWS 12 weeks (rituximab [1]; [16]): 0.29%
% HMWS 26 weeks (rituximab [1]; [16]): 4.18%
% HMWS 0 weeks (rituximab [1]; [17]): 0.36%
% HMWS 12 weeks (rituximab [1]; [17]): 0.27%
% HMWS 26 weeks (rituximab [1]; [17]): 0.45%
% HMWS 0 weeks (rituximab [1]; [18]): 0.26%
% HMWS 12 weeks (rituximab [1]; [18]): 0.17%
% HMWS 26 weeks (rituximab [1]; [18]): 0.64%
% HMWS 0 weeks (rituximab [1]; [19]): 0.35%
% HMWS 12 weeks (rituximab [1]; [19]): 0.32%
% HMWS 26 weeks (rituximab [1]; [19]): 3.26%
% HMWS 0 weeks (Certolizumab pegol; histidine 10 mM pH 6.0, 1,2-propanediol 200 mM, additive 1 mg/ml): 0.55%
% HMWS 0 weeks (Certolizumab pegol; [20]): 0.49%
% HMWS 8 weeks (Certolizumab pegol; [20]): 0.85%
% HMWS 0 weeks (Certolizumab pegol; histidine 10 mM pH 6.0, NaCl 150 mM, additive 1 mg/ml): 0.63%
% HMWS 0 weeks (Certolizumab pegol; histidine 10 mM pH 6.0, NaCl 150 mM, additive 3 mg/ml): 0.49%
